US9283222B2 (priority 2006, dated 2016)

What was measured:
[1] = target: T1, PARP in C41 cells (Homo sapiens (Human), UniProt P09874); test: cell-based
[2] = target: Recombinant Human Poly(ADP-Ribose) Polymerase (PARP), PARP-1 (Homo sapiens (Human), UniProt P09874); details: read-out: PARP-1 (Ki); Table 3; H analogs versus para-F analogs
Description: Nicotinamide[2,5′,8-3H]adenine dinucleotide and strepavidin SPA beads were purchased from Amersham Biosiences. […] NAD^+, histone, aminobenzamide, 3-amino benzamide and Calf Thymus DNA (dcDNA) were purchased from Sigma. Stem loop oligonucleotide containing MCAT sequence was obtained from Qiagen. The oligos were dissolved to 1 mM in annealing buffer containing 10 mM Tris HCl pH 7.5, 1 mM EDTA, and 50 mM NaCl, incubated for 5 minutes at 95° C., and annealed at 45° C. for 45 minutes. […] Biotinylated histone H1 was prepared by treating the protein with Sulfo-NHS-LC-Biotin from Pierce. The biotinylation reaction was conducted by slowly and intermittently adding 3 equivalents of 10 mM Sulfo-NHS-LC-Biotin to 100 μM Histone H1 in phosphate-buffered saline, pH 7.5, at 4° C. with gentle vortexing over 1 minute followed by subsequent 4° C. incubation for 1 hour. Streptavidin coated (FlashPlate Plus) microplates were purchased from Perkin Elmer.
PARP1 assay was conducted in PARP assay buffer containing 50 mM Tris pH 8.0, 1 mM DTT, 4 mM MgCl2. […] Auto reactions utilizing SPA bead-based detection were carried out in 100 μL volumes in white 96 well plates.

[3] = target: T1, PARP in C41 cells; details: Table 3; C41 cells; ratio to comparator EC50

T1 sequence (P09874 whole entry): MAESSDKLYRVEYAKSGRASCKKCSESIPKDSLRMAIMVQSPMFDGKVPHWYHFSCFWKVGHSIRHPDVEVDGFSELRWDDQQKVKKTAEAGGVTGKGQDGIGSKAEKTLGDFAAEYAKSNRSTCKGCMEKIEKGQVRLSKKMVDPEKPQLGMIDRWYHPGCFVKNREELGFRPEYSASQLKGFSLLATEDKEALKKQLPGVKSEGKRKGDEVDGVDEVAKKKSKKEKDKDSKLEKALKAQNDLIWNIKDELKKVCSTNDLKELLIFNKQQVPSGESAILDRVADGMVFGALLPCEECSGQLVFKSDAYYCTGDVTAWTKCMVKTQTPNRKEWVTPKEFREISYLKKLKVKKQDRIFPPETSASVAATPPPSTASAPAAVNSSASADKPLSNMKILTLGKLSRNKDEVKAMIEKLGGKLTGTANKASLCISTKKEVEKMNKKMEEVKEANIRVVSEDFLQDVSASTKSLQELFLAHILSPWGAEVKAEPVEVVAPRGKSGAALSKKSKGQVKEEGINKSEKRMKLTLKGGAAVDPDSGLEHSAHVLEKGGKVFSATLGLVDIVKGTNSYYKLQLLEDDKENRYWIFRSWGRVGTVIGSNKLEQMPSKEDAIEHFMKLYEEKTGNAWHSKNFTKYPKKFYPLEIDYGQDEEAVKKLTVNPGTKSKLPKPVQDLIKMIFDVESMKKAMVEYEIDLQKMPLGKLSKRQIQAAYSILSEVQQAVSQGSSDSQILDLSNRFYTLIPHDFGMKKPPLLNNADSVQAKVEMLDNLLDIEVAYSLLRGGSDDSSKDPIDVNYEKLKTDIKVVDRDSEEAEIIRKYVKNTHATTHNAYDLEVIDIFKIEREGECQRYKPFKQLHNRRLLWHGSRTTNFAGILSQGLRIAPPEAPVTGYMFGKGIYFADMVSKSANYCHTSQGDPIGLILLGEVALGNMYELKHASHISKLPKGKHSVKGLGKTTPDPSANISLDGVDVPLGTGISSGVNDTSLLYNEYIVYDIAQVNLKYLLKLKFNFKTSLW
Recombinant Human Poly(ADP-Ribose) Polymerase (PARP), PARP-1, sequence (P09874 whole entry): as above

Row | EC50 ([1]; EC50 generally ranged, range over all assays) | EC50 ([1]; mean EC50 for all assays carried out, n=270) | SMILES | Ki [2] | Cell EC50 ratio [3]
1 | 1 to 13 nM | 3.2 nM | CCCN1CCC(c2nc3cccc(C(N)=O)c3[nH]2)CC1 | – | –
2 | – | – | O=C(c1cccc(Cc2n[nH]c(=O)c3c2CCCC3)c1)N1CCN(c2ccccn2)CC1 [drawing 32] | 3 nM | 1.9
3 | – | – | CN(C)CCN(C)C(=O)c1cc(Cc2n[nH]c(=O)c3c2CCCC3)ccc1F [drawing 53] | 3.6 nM | 0.7
